Key:
barnyardgrass [1] = experiment: Test A preemergence; format: in vivo, Echinochloa crus-galli; conditions: Echinochloa crus-galli, pre-emergence, 240 h, 0 to 100 scale (0 no effect, 100 complete control), read-out: Plant response rating, Barnyardgrass
Outline: (§1)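 Herbicidal response was scored on plants treated pre- or postemergence with surfactant-containing, non-phytotoxic solvent formulations. Preemergence meant a directed spray onto soil (loam–sand) holding sown seed; postemergence plants were at one to two leaves.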

foxtail, giant [2] = experiment: Test A preemergence; format: in vivo, Setaria faberii; conditions: Setaria faberi, pre-emergence, 240 h, 0 to 100 scale (0 no effect, 100 complete control), read-out: Plant response rating, Foxtail, Giant
Outline: as §1

pigweed [3] = experiment: Test A preemergence; format: in vivo, Amaranthus retroflexus; conditions: Amaranthus retroflexus, pre-emergence, 240 h, 0 to 100 scale (0 no effect, 100 complete control), read-out: Plant response rating, Pigweed
Outline: as §1

barnyardgrass [4] = experiment: Test A postemergence; format: in vivo, Echinochloa crus-galli; conditions: Echinochloa crus-galli, post-emergence, 240 h, 0 to 100 scale (0 no effect, 100 complete control), approx. 10 d, read-out: Plant response rating, Barnyardgrass
Outline: as §1

foxtail, giant [5] = experiment: Test A postemergence; format: in vivo, Setaria faberii; conditions: Setaria faberi, post-emergence, 240 h, 0 to 100 scale (0 no effect, 100 complete control), approx. 10 d, read-out: Plant response rating, Foxtail, Giant
Outline: as §1

pigweed [6] = experiment: Test A postemergence; format: in vivo, Amaranthus retroflexus; conditions: Amaranthus retroflexus, post-emergence, 240 h, 0 to 100 scale (0 no effect, 100 complete control), approx. 10 d, read-out: Plant response rating, Pigweed
Outline: as §1

wheat = experiment: Test A postemergence; format: in vivo, Triticum aestivum; conditions: Triticum aestivum, post-emergence, 240 h, 0 to 100 scale (0 no effect, 100 complete control), approx. 10 d, read-out: Plant response rating, Wheat
Outline: as §1

corn [7] = experiment: Test A postemergence; format: in vivo, Zea mays; conditions: Zea mays, post-emergence, 240 h, 0 to 100 scale (0 no effect, 100 complete control), approx. 10 d
Outline: as §1

rice = experiment: Test B flooded paddy test; format: in vivo, Oryza sativa; conditions: Oryza sativa, 360 h, 125 g ai/ha, applied to paddy water at 2-leaf stage, visual rating after 13 to 15 d, scale 0 (no effect) to 100 (complete control), read-out: Plant response rating, Rice, Flood
Outline: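 Pots were flooded to 3 cm above the soil at treatment, and compounds were applied directly into the paddy water. That depth was held throughout. After 13 to 15 d in a greenhouse, plants were rated visually against untreated controls.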

ryegrass, Italian = experiment: Test C postemergence; format: in vivo, Lolium multiflorum
Outline: (§2)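 Pre: seeded into loam/sand, sprayed same time. Post: plants in peat moss–vermiculite mix with starter nutrients and dolomitic limestone, treated at 1- to 4-leaf stage (2 to 18 cm). Formulation: non-phytotoxic solvent blend plus surfactant.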

wheat (winter wheat) = experiment: Test C postemergence; format: in vivo, Triticum aestivum
Outline: as §2

galium = experiment: Test C postemergence; format: in vivo, Galium aparine
Outline: as §2

corn [8] = experiment: Test C postemergence; format: in vivo, Zea mays
Outline: as §2

crabgrass, large = experiment: Test C postemergence; format: in vivo, Digitaria sanguinalis
Outline: as §2

lambsquarters = experiment: Test C postemergence; format: in vivo, Chenopodium album
Outline: as §2

nutsedge, yellow = experiment: Test C postemergence; format: in vivo, Cyperus esculentus
Outline: as §2

pigweed [9] = experiment: Test C postemergence; format: in vivo, Amaranthus retroflexus
Outline: as §2

soybean = experiment: Test C postemergence; format: in vivo, Glycine max
Outline: as §2

oilseed rape = experiment: Test C postemergence; format: in vivo, Brassica napus; conditions: Oilseed Rape
Outline: as §2

waterhemp = experiment: Test C postemergence; format: in vivo, Amaranthus rudis
Outline: as §2

velvetleaf = experiment: Test C postemergence; format: in vivo, Abutilon theophrasti
Outline: as §2

Compound: COc1nc(-c2ccc(F)cc2)nn1Cc1ccnc(C(F)(F)F)c1 [Compound 9, 4-[[3-(4-fluorophenyl)-5-methoxy-1H-1,2,4-triazol-1-yl]methyl]-2-(trifluoromethyl)pyridine]
- pest or weed control at 125 g/ha (barnyardgrass [1]; 125 g ai/ha): 80%
- pest or weed control at 500 g/ha (barnyardgrass [1]; 500 g ai/ha, approx. 10 d): 100%
- pest or weed control at 125 g/ha (foxtail, giant [2]; 125 g ai/ha): 100%
- pest or weed control at 500 g/ha (foxtail, giant [2]; 500 g ai/ha, approx. 10 d): 100%
- pest or weed control at 125 g/ha (pigweed [3]; 125 g ai/ha): 100%
- pest or weed control at 500 g/ha (pigweed [3]; 500 g ai/ha, approx. 10 d): 100%
- pest or weed control at 125 g/ha (barnyardgrass [4]; 125 g ai/ha): 70%
- pest or weed control at 500 g/ha (barnyardgrass [4]; 500 g ai/ha): 90%
- pest or weed control at 125 g/ha (foxtail, giant [5]; 125 g ai/ha): 80%
- pest or weed control at 500 g/ha (foxtail, giant [5]; 500 g ai/ha): 100%
- pest or weed control at 125 g/ha (pigweed [6]; 125 g ai/ha): 100%
- pest or weed control at 500 g/ha (pigweed [6]; 500 g ai/ha): 100%
- plant injury at 125 g/ha (wheat; 125 g ai/ha): 10%
- plant injury at 500 g/ha (wheat; 500 g ai/ha): 10%
- Corn plant response rating (crop injury, 0 = no effect, 100 = complete kill) at 125 g/ha (corn [7]; 125 g ai/ha): 40%
- Corn plant response rating (crop injury, 0 = no effect, 100 = complete kill) at 500 g/ha (corn [7]; 500 g ai/ha): 80%
- plant injury at 125 g/ha (rice): 0%
- Plant response rating (scale of 0 to 100 where 0 is no effect and 100 is complete control) (ryegrass, Italian; 16 g ai/ha): 0
- Plant response rating (scale of 0 to 100 where 0 is no effect and 100 is complete control) (ryegrass, Italian; 31 g ai/ha): 5
- Plant response rating (scale of 0 to 100 where 0 is no effect and 100 is complete control) (ryegrass, Italian; 62 g ai/ha): 5
- Plant response rating (scale of 0 to 100 where 0 is no effect and 100 is complete control) (ryegrass, Italian; 125 g ai/ha): 5
- Plant response rating (scale of 0 to 100 where 0 is no effect and 100 is complete control) (wheat (winter wheat); 16 g ai/ha): 0
- Plant response rating (scale of 0 to 100 where 0 is no effect and 100 is complete control) (wheat (winter wheat); 31 g ai/ha): 0
- Plant response rating (scale of 0 to 100 where 0 is no effect and 100 is complete control) (wheat (winter wheat); 62 g ai/ha): 0
- Plant response rating (scale of 0 to 100 where 0 is no effect and 100 is complete control) (wheat (winter wheat); 125 g ai/ha): 5
- Plant response rating (scale of 0 to 100 where 0 is no effect and 100 is complete control) (galium; 16 g ai/ha): 50
- Plant response rating (scale of 0 to 100 where 0 is no effect and 100 is complete control) (galium; 31 g ai/ha): 70
- Plant response rating (scale of 0 to 100 where 0 is no effect and 100 is complete control) (galium; 62 g ai/ha): 80
- Plant response rating (scale of 0 to 100 where 0 is no effect and 100 is complete control) (galium; 125 g ai/ha): 65
- Plant response rating (scale of 0 to 100 where 0 is no effect and 100 is complete control) (corn [8]; 16 g ai/ha): 10
- Plant response rating (scale of 0 to 100 where 0 is no effect and 100 is complete control) (corn [8]; 31 g ai/ha): 20
- Plant response rating (scale of 0 to 100 where 0 is no effect and 100 is complete control) (corn [8]; 62 g ai/ha): 35
- Plant response rating (scale of 0 to 100 where 0 is no effect and 100 is complete control) (corn [8]; 125 g ai/ha): 20
- Plant response rating (scale of 0 to 100 where 0 is no effect and 100 is complete control) (crabgrass, large; 16 g ai/ha): 10
- Plant response rating (scale of 0 to 100 where 0 is no effect and 100 is complete control) (crabgrass, large; 31 g ai/ha): 10
- Plant response rating (scale of 0 to 100 where 0 is no effect and 100 is complete control) (crabgrass, large; 62 g ai/ha): 25
- Plant response rating (scale of 0 to 100 where 0 is no effect and 100 is complete control) (crabgrass, large; 125 g ai/ha): 25
- Plant response rating (scale of 0 to 100 where 0 is no effect and 100 is complete control) (lambsquarters; 16 g ai/ha): 65
- Plant response rating (scale of 0 to 100 where 0 is no effect and 100 is complete control) (lambsquarters; 31 g ai/ha): 55
- Plant response rating (scale of 0 to 100 where 0 is no effect and 100 is complete control) (lambsquarters; 62 g ai/ha): 70
- Plant response rating (scale of 0 to 100 where 0 is no effect and 100 is complete control) (lambsquarters; 125 g ai/ha): 85
- Plant response rating (scale of 0 to 100 where 0 is no effect and 100 is complete control) (nutsedge, yellow; 16 g ai/ha): 0
- Plant response rating (scale of 0 to 100 where 0 is no effect and 100 is complete control) (nutsedge, yellow; 31 g ai/ha): 0
- Plant response rating (scale of 0 to 100 where 0 is no effect and 100 is complete control) (nutsedge, yellow; 62 g ai/ha): 0
- Plant response rating (scale of 0 to 100 where 0 is no effect and 100 is complete control) (nutsedge, yellow; 125 g ai/ha): 5
- Plant response rating (scale of 0 to 100 where 0 is no effect and 100 is complete control) (pigweed [9]; 16 g ai/ha): 75
- Plant response rating (scale of 0 to 100 where 0 is no effect and 100 is complete control) (pigweed [9]; 31 g ai/ha): 85
- Plant response rating (scale of 0 to 100 where 0 is no effect and 100 is complete control) (pigweed [9]; 62 g ai/ha): 90
- Plant response rating (scale of 0 to 100 where 0 is no effect and 100 is complete control) (pigweed [9]; 125 g ai/ha): 85
- Plant response rating (scale of 0 to 100 where 0 is no effect and 100 is complete control) (soybean; 16 g ai/ha): 15
- Plant response rating (scale of 0 to 100 where 0 is no effect and 100 is complete control) (soybean; 31 g ai/ha): 25
- Plant response rating (scale of 0 to 100 where 0 is no effect and 100 is complete control) (soybean; 62 g ai/ha): 30
- Plant response rating (scale of 0 to 100 where 0 is no effect and 100 is complete control) (soybean; 125 g ai/ha): 30
- Plant response rating (scale of 0 to 100 where 0 is no effect and 100 is complete control) (oilseed rape; 16 g ai/ha): 40
- Plant response rating (scale of 0 to 100 where 0 is no effect and 100 is complete control) (oilseed rape; 31 g ai/ha): 55
- Plant response rating (scale of 0 to 100 where 0 is no effect and 100 is complete control) (oilseed rape; 62 g ai/ha): 80
- Plant response rating (scale of 0 to 100 where 0 is no effect and 100 is complete control) (oilseed rape; 125 g ai/ha): 70
- Plant response rating (scale of 0 to 100 where 0 is no effect and 100 is complete control) (waterhemp; 16 g ai/ha): 70
- Plant response rating (scale of 0 to 100 where 0 is no effect and 100 is complete control) (waterhemp; 31 g ai/ha): 65
- Plant response rating (scale of 0 to 100 where 0 is no effect and 100 is complete control) (waterhemp; 62 g ai/ha): 80
- Plant response rating (scale of 0 to 100 where 0 is no effect and 100 is complete control) (waterhemp; 125 g ai/ha): 85
- Plant response rating (scale of 0 to 100 where 0 is no effect and 100 is complete control) (velvetleaf; 16 g ai/ha): 25
- Plant response rating (scale of 0 to 100 where 0 is no effect and 100 is complete control) (velvetleaf; 31 g ai/ha): 35
- Plant response rating (scale of 0 to 100 where 0 is no effect and 100 is complete control) (velvetleaf; 62 g ai/ha): 35
- Plant response rating (scale of 0 to 100 where 0 is no effect and 100 is complete control) (velvetleaf; 125 g ai/ha): 35
